# In US10662183B2, “Inhibitors of myocardin-related transcription factor and serum response factor (MRTF/SRF)-mediated gene transcription and methods for use of the same” (THE REGENTS OF THE UNIVERSITY OF MICHIGAN, priority 2014, dated 2020):
# pIC50: −log10 of the molar value.
# System: SRE.L-firefly luciferase reporter (Rho/MKL1 pathway) in PC-3 prostate cancer cells
# Assay: SRE.L-luciferase reporter assay
# Format: cell-based
# Settings: 19 h, PC-3 cells transfected with Gα12Q231L, SRE.L and pRL-TK reporters; compound 19 hrs
# In short: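 PC-3 cells co-transfected with Gα12Q231L (2 ng), SRE.L-firefly (50 ng) and pRL-TK Renilla (7 ng) reporters, then treated with 0–100 μM compound for 19 h at 37° C. in 0.5% FBS DMEM. Dual-luciferase luminescence expressed as % inhibition vs DMSO; WST-1 viability at 450 nm; n=3 in triplicate.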
row,SMILES,pIC50
1,"O=C(Nc1ccc(Cl)cc1)C1CN(C(=O)c2cccc(-c3ccccn3)c2)CC(F)(F)C1 (centres unmarked) [Example E-096, N-(4-chlorophenyl)-5,5-difluoro-1-(3-(pyridin-2-yl)benzoyl)piperidine-3-carboxamide]",5.96
2,"O=C(Nc1c(F)cccc1F)C1CCCN(C(=O)c2cccc(-c3ccco3)c2)C1 (centres unmarked) [Example E-097, N-(2,6-difluorophenyl)-1-(3-(furan-2-yl)benzoyl)piperidine-3-carboxamide]",4.49
3,"O=C(Nc1ccc(Cl)cc1)C1CN(C(=O)c2cccc(-c3ncc[nH]3)c2)CC(F)(F)C1 (centres unmarked) [Example E-098, 1-(3-(1H-imidazol-2-yl)benzoyl)-N-(4-chlorophenyl)-5,5-difluoropiperidine-3-carboxamide]",5.00
4,"O=C(Nc1ccc(Cl)cc1)C1CN(C(=O)c2cccc(-c3cncnc3)c2)CC(F)(F)C1 (centres unmarked) [Example E-099, N-(4-chlorophenyl)-5,5-difluoro-1-(3-(pyrimidin-5-yl)benzoyl)piperidine-3-carboxamide]",5.48
5,"O=C(Nc1ccc(Cl)cc1)C1CN(C(=O)c2cccc(-c3cccnc3)c2)CC(F)(F)C1 (centres unmarked) [Example E-100, N-(4-chlorophenyl)-5,5-difluoro-1-(3-(pyridin-3-yl)benzoyl)piperidine-3-carboxamide]",6.04
6,"O=C(Nc1ccccc1Cl)C1CCCN(C(=O)c2cccc(-c3ccco3)c2)C1 (centres unmarked) [Example E-101, N-(2-chlorophenyl)-1-(3-(furan-2-yl)benzoyl)piperidine-3-carboxamide]",5.25
7,"N#Cc1ccc(NC(=O)C2CCCN(C(=O)c3cccc(-c4ccco4)c3)C2)cc1 (centres unmarked) [Example E-104, N-(4-cyanophenyl)-1-(3-(furan-2-yl)benzoyl)piperidine-3-carboxamide]",5.54
8,"O=C(Nc1ccc(F)cc1)C1CCCN(C(=O)c2cccc(-c3ccco3)c2)C1 (centres unmarked) [Example E-105, N-(4-fluorophenyl)-1-(3-(furan-2-yl)benzoyl)piperidine-3-carboxamide]",4.89
9,"O=C(Nc1ccc(Cl)cc1)C1CN(C(=O)c2cccc(-c3cn[nH]c3)c2)CC(F)(F)C1 (centres unmarked) [Example E-106, 1-(3-(1H-pyrazol-4-yl)benzoyl)-N-(4-chlorophenyl)-5,5-difluoropiperidine-3-carboxamide]",4.82
10,"O=C(Nc1ccc(Cl)cc1)C1CCN(C(=O)c2cccc(-c3ccco3)c2)C1 (centres unmarked) [Example E-107, N-(4-chlorophenyl)-1-(3-(furan-2-yl)benzoyl)pyrrolidine-3-carboxamide]",4.85
11,"O=C(Nc1ccc(Cl)cc1)C1CCCN(C(=O)c2ccc(-n3cccc3)cc2)C1 (centres unmarked) [Example E-109, 1-(4-(1H-pyrrol-1-yl)benzoyl)-N-(4-chlorophenyl)piperidine-3-carboxamide]",5.20
12,"O=C(Nc1ccc(Cl)cc1)C1CCCN(Cc2ccc(-n3cccc3)cc2)C1 (centres unmarked) [Example E-110, 1-(4-(1H-pyrrol-1-yl)benzyl)-N-(4-chlorophenyl)piperidine-3-carboxamide]",5.54
13,"Cc1ccc(NC(=O)C2CCCN(C(=O)c3cccc(-c4ccco4)c3)C2)cc1 (centres unmarked) [Example E-111, 1-(3-(furan-2-yl)benzoyl)-N-(p-tolyl)piperidine-3-carboxamide]",4.82
14,"O=C(NCc1ccc(Cl)cc1)C1CCCN(C(=O)c2cccc(-c3ccco3)c2)C1 (centres unmarked) [Example E-112, N-(4-chlorobenzyl)-1-(3-(furan-2-yl)benzoyl)piperidine-3-carboxamide]",4.68
15,"CCNc1ccc(CN2CCCC(C(=O)Nc3ccc(Cl)cc3)C2)cc1 (centres unmarked) [Example E-113, N-(4-chlorophenyl)-1-(4-(ethylamino)benzyl)piperidine-3-carboxamide]",5.10
16,"O=C(Nc1ccc(Cl)cc1)C1CCCN(Cc2ccc(-n3cccn3)cc2)C1 (centres unmarked) [Example E-114, 1-(4-(1H-pyrazol-1-yl)benzyl)-N-(4-chlorophenyl)piperidine-3-carboxamide]",5.80
17,"O=C(Nc1ccc(Cl)cc1)C1CCCN(C(=O)c2cccc(-n3ccnc3)c2)C1 (centres unmarked) [Example E-115, 1-(3-(1H-imidazol-1-yl)benzoyl)-N-(4-chlorophenyl)piperidine-3-carboxamide]",5.28
